In publication PMC7617456, “Cryptosporidium lysyl-tRNA synthetase inhibitors define the interplay between solubility and permeability required to achieve efficacy” (Science translational medicine, 2024):
Converted amounts (≈) assume the structure as drawn. Like-named read-outs stand apart in the source and are kept apart here.

What was measured:
[1] = test system: transgenic C. parvum that express NanoLuciferase; test: IFN-Gamma KO mouse acute efficacy model; assay type: in vivo; settings: DDD489, DDD508 50 mg/kg BID; DDD706 20 mg/kg QD; oral 7 days from day 6 PI
Procedure: First, compounds were tested in the acute cryptosporidiosis mouse model, IFN-Gamma KO.([16]) In this model, infection peaks at approximately 10-12 days PI, and resolves within a month. Mice were infected with a strain of transgenic C. parvum that expresses NanoLuciferase (NLuc).([12]) Mice were treated orally for 7 days starting on day 6 PI (Fig. 4A) and a NanoLuciferase assay was used to determine parasite shedding in feces (RLUs/g). Control mice received either vehicle (Fig. 4B, white) or positive control, DDD706 (Fig. 4B, black; NLuc parasites are genetically engineered to be resistant to paromomycin, so DDD706 serves as the positive control) at 20 mg/kg QD; DDD489 and DDD508 were tested at 50 mg/kg BID.
Male IFN-Gamma knockout mice (B6.129S7-Ifng^tmlTS/J, JAX 002287; purchased from Jackson Labs and bred at the University of Dundee) aged 30 weeks old were used, (n = 5 mice per experimental group). Mice were infected by oral gavage (100 oocysts of Δtk::mNeon-Neo^R as described previously([12])). Compounds were prepared in HMPC without DMSO and administered by oral gavage at 50 mg/kg starting day 6 PI. Early lead compound DDD706 served as the positive control (administered at 20 mg/kg QD). Fecal samples were pooled from all mice in the cage on days indicated. Oocyst shedding in feces was determined by NanoLuciferase assay (20 mg of fecal material was homogenized in 1 ml of lysis buffer and assayed for NLuc activity as previously described).([12])

[2] = Hepatocyte intrinsic clearance, mouse; assay type: in vitro ADME; settings: mouse hepatocytes
mitochondrial function = test: Functional mitochondrial toxicity assay (Seahorse XFe96); assay type: cell-based
[3] = Liver microsomal intrinsic clearance, mouse; assay type: in vitro ADME; settings: mouse liver microsomes
[4] = test system: Salmonella typhimurium (TA98, TA100, TA1535, and TA97a) and Escherichia coli WP2 uvrA; test: Mini-Ames; assay type: cell-based; settings: presence and absence of S9 mix
[5] = Plasma protein binding, rat; assay type: in vitro ADME; settings: read-out: PPB (r) (converted)
CYP450 2D6 = CYP450 2D6 (Homo sapiens, UniProt P10635); test: CYP450 inhibition 2D6; assay type: in vitro ADME
CYP450 2D6, sequence (P10635 whole entry): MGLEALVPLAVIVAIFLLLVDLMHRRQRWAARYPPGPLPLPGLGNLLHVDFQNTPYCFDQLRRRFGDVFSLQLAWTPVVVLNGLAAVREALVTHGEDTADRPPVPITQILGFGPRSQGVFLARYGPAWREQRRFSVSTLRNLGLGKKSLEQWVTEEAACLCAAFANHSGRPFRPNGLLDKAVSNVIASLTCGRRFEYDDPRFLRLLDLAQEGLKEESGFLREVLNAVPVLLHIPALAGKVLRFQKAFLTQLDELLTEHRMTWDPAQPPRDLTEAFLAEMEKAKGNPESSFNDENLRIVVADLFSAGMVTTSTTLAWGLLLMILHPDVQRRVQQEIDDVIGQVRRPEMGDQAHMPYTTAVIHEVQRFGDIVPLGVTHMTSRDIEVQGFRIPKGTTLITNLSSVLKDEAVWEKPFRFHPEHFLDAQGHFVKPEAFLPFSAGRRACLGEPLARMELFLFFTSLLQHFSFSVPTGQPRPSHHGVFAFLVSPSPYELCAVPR
Procedure: (§1) CYP450 inhibition (Dundee)
(§2) As previously described.(31)
(§3) DDD489 and DDD508 were evaluated for their ability to induce reverse mutations both in the presence and absence of S9 mix at the histidine locus in the genome of four strains of Salmonella typhimurium (TA98, TA100, TA1535, and TA97a) and at the tryptophan locus in the genome of Escherichia coli WP2 uvrA in a mini-Ames study conducted at WuXi App Tec […]
(§4) hERG inhibition (WuXi App Tec)
(§5) DDD489 and DDD508 were evaluated for their effects on cloned hERG potassium channels stably expressed in Chinese Hamster Ovary (CHO) cells using manual patch-clamp technique in a hERG inhibition assay conducted at WuXi App Tec (Suzhou).
(§6) Mitochondrial toxicity (Cyprotex)
(§7) DDD489 and DDD508 were evaluated for their effects on mitochondrial function in a functional mitochondrial toxicity assay using Seahorse XFe96 flux analyser conducted at […]
(§8) 44 screen safety panel (Eurofins)
(§9) DDD489 was evaluated for off-target effects in a SafetyScreen44 panel at Eurofins Cerep.
(§10) All regulated procedures, at the University of Dundee, on living animals were carried out under the authority of a project license issued by the Home Office under the Animals (Scientific Procedures) Act 1986, as amended in 2012 (and in compliance with EU Directive EU/2010/63). […]

CYP450 2C9 = CYP450 2C9 (Homo sapiens, UniProt P11712); test: CYP450 inhibition 2C9; assay type: in vitro ADME
CYP450 2C9, sequence (P11712 whole entry): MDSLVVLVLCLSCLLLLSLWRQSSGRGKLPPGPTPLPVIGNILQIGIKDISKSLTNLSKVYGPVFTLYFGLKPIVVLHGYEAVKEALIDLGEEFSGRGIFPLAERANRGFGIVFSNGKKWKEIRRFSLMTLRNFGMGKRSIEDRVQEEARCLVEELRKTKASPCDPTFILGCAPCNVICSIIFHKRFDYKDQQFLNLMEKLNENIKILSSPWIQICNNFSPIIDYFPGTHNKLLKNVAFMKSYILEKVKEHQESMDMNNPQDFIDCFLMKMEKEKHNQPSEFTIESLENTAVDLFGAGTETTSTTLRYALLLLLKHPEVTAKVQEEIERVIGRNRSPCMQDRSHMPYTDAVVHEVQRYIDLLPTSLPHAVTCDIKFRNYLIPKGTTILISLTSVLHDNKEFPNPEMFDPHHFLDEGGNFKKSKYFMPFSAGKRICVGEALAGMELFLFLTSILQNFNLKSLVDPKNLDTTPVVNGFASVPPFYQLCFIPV
Procedure: as §1, §2, §3, §4, §5, §6, §7, §8, §9, §10

FaSSIF solubility = assay type: physicochemical; settings: Fasted State Simulated Intestinal Fluid
PAMPA permeability = assay type: in vitro ADME; settings: for Papp at 5 h, 10 µM: PAMPA, pH 7.4, pH 7.4
Procedure: Solubility test samples were prepared by adding 5 μL stock to PBS pH 7.4 (195 μL). […] […] vacuum […] (Millipore Multiscreen HTS fi lter, 96-well format) to remove any undissolved material. The […] analyzed for dissolved drug compound using a truncated UHPLC methodology. A calibration solution was prepared for each test compound. […] Aliquots of the test sample […] (0.4 and 5.0 μL) were injected onto the UHPLC system and the resultant test compound peak areas quantifi ed […] PAMPA per meability As previously described.(28) The permeability assay was performed using a 96-well precoated BD Gentest PAMPA plate (BD Biosciences). Each well was divided into two chambers: donor and acceptor, separated by a lipid-oil-lipid trilayer constructed in a porous fi lter. […] Stock solutions (5 mM) of the compound were prepared in DMSO. […] The compound dissolved in phosphate buffered saline was added to the donor side of the membrane, and phosphate-buffered saline without the compound was added to the acceptor side. The PAMPA plate was left at room temperature for 5 h then an aliquot (100 μL) was removed from both acceptor and donor compartments and mixed with acetonitrile (80 μL) containing an internal standard: donepezil at 50 ng/mL. The samples were centrifuged (10 min, 5 °C, 3270×g) to sediment lipids and sealed prior to UPLC-MS/MS analysis using a Quattro Premier XE (Waters Corp, USA). Recovery of the compound from donor and acceptor wells was calculated, and data were only accepted when recovery exceeded 70%.

wild type parasites (WT) = test: Transgenic C. parvum NanoLuciferase drug sensitivity assay, WT; assay type: cell-based; settings: Cryptosporidium parvum, HCT-8, 48 h, read-out: EC50, WT
CHIlogD = assay type: physicochemical; settings: pH 7.4
hERG potassium channels = molecular target: T1, hERG potassium channels (Homo sapiens, UniProt Q12809); test: hERG inhibition, manual patch-clamp; assay type: cell-based; settings: CHO cells
T1 construct: host or cells: Chinese Hamster Ovary (CHO) cells
T1 sequence (Q12809 whole entry): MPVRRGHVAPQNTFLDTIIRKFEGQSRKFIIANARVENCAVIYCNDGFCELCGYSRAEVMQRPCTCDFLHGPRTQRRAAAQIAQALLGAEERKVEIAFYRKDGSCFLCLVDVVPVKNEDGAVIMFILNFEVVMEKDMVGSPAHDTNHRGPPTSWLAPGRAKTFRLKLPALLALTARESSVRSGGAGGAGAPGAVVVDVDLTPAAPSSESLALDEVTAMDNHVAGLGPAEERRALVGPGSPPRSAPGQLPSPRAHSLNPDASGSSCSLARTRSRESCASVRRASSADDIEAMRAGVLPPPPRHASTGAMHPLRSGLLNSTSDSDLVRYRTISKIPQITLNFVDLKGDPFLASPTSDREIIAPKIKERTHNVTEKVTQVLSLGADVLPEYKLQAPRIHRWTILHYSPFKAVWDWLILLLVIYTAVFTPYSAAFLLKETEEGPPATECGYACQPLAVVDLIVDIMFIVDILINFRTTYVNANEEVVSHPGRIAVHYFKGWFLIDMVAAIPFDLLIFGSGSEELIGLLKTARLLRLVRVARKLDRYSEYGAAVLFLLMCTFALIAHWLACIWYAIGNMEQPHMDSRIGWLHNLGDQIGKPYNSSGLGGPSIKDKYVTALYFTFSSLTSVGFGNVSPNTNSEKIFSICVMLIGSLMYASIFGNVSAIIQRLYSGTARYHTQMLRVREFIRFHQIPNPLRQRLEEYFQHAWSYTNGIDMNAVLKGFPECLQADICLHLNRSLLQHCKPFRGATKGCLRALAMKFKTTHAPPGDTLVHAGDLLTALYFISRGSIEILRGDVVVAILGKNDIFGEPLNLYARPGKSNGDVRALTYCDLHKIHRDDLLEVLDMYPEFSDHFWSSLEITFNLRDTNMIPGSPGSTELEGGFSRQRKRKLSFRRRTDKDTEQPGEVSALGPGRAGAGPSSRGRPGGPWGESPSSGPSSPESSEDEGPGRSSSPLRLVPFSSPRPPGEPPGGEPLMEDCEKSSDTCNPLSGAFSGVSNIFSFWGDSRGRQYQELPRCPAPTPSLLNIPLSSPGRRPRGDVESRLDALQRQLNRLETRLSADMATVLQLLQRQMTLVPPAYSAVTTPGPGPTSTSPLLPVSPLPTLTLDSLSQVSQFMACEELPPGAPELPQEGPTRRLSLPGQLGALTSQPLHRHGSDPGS
Procedure: as §4
DDD489 and DDD508 were evaluated for their effects on cloned hERG potassium channels stably expressed in Chinese Hamster Ovary (CHO) cells using manual patch-clamp technique in a hERG inhibition assay conducted at WuXi App Tec (Suzhou). […]

[6] = read-out: Oxygen consumption AC50

Row | Structure (SMILES) | parasite shedding during treatment period [1] | recrudescence [1] | Heps CLi (m) [2] [mL/min/g] | Extracellular acidification rate AC50 (mitochondrial function) | Reserve capacity AC50 (mitochondrial function) | AC50 (mitochondrial function; [6]) [µM] | Mics CLi (m) [3] [mL/min/g] | Mini-Ames (4 strains ± S9) [4] | fraction unbound [5] | IC50 (CYP450 2D6) [µM] | IC50 (CYP450 2C9) [µM] | solubility (FaSSIF solubility) [µM] | Papp at 5 h, 10 µM (PAMPA permeability) [×10⁻⁶ cm/s] | EC50 (wild type parasites (WT)) [µM] | chromatographic logD (CHIlogD) | IC50 (hERG potassium channels) [µM] | AC50 (mitochondrial function; read-out: Reserve capacity AC50) [µM] | PAMPA Papp (PAMPA permeability; pH 7.4) [×10⁻⁶ cm/s]
1 | Nc1nc2c(c(C(F)(F)F)n1)C(=O)N(CC1CCCC(C(F)(F)F)C1)C2 (stereo not drawn) [DDD489] | reduced parasite shedding below the LOQ | able to prevent parasite recrudescence | 10 | No response | No response | > 100 | 12 | Negative | 0.42 | 8 | 32 | 48 (≈ 18.4 µg/mL) | 17.1 | 0.085 | 2.8 | > 30 | – | –
2 | O=C(NCC1(O)CCCCC1)c1cc(=O)c2cc(O)ccc2o1 [DDD508] | reduced parasite shedding below the limit of quantitation (LOQ) | unable to prevent recrudescence | 3.7 | No response | – | > 100 | 1.4 | Negative | 0.47 | > 100 | > 100 | 325 (≈ 103 µg/mL) | 0.69 | 0.27 | 1 | > 30 | > 100 | 0.7
